# Numbers after ± are expanded uncertainties.
# Experiment: activity coefficient (dimensionless); of the first substance listed, at infinite dilution; xn = mol fraction of the nth substance listed
# Details: 101.3 kPa, Liquid, Chromatography, x1 = 0
SMILES,activity coefficient (323.15 K),activity coefficient (333.15 K),activity coefficient (343.15 K),activity coefficient (353.15 K),activity coefficient (363.15 K),activity coefficient (313.15 K)
C=Cc1ccccc1 [styrene] + COP(=O)([O-])OC.Cn1cc[n+](C)c1,6.62 ± 0.7,6.61 ± 0.69,6.6 ± 0.69,6.58 ± 0.69,6.57 ± 0.69,
C1=CCCCC1 [cyclohexene] + CCn1cc[n+](C)c1.COP(=O)([O-])OC,22.4 ± 2.4,20 ± 2.1,18.7 ± 2,16.9 ± 1.8,15.5 ± 1.6,25.4 ± 2.7
CCCCCC [hexane] + CCn1cc[n+](C)c1.COP(=O)([O-])OC,122 ± 13,107 ± 11,87.6 ± 9.2,72.2 ± 7.6,61.5 ± 6.5,139 ± 15
CCCCC [pentane] + COP(=O)([O-])OC.Cn1cc[n+](C)c1,230 ± 24,217 ± 23,201 ± 21,184 ± 19,170 ± 18,245 ± 26
"Cc1ccccc1C [1,2-dimethylbenzene] + COP(=O)([O-])OC.Cn1cc[n+](C)c1",12.5 ± 1.3,12.4 ± 1.3,12.2 ± 1.3,12.1 ± 1.3,12 ± 1.3,12.7 ± 1.3
Cc1ccccc1 [toluene] + COP(=O)([O-])OC.Cn1cc[n+](C)c1,7.54 ± 0.79,7.51 ± 0.79,7.48 ± 0.79,7.47 ± 0.79,7.45 ± 0.78,7.57 ± 0.8
Cc1ccccc1 [toluene] + CCn1cc[n+](C)c1.COP(=O)([O-])OC,6.14 ± 0.65,5.94 ± 0.62,5.73 ± 0.6,5.56 ± 0.58,5.4 ± 0.57,6.45 ± 0.68
"Cc1cccc(C)c1 [1,3-dimethylbenzene] + CCn1cc[n+](C)c1.COP(=O)([O-])OC",11.8 ± 1.2,11.2 ± 1.2,10.8 ± 1.1,10.5 ± 1.1,9.99 ± 1.1,12.4 ± 1.3
CCCCCCCC [octane] + COP(=O)([O-])OC.Cn1cc[n+](C)c1,325 ± 34,302 ± 32,285 ± 30,270 ± 28,248 ± 26,340 ± 36
C1CCCCC1 [cyclohexane] + CCn1cc[n+](C)c1.COP(=O)([O-])OC,48.9 ± 5.2,44 ± 4.6,40.6 ± 4.3,37.7 ± 4,32.9 ± 3.5,53.9 ± 5.7
c1ccccc1 [benzene] + COP(=O)([O-])OC.Cn1cc[n+](C)c1,3.62 ± 0.38,3.61 ± 0.38,3.59 ± 0.38,3.57 ± 0.38,3.56 ± 0.37,3.64 ± 0.38
"Cc1cccc(C)c1 [1,3-dimethylbenzene] + COP(=O)([O-])OC.Cn1cc[n+](C)c1",14.4 ± 1.5,14.2 ± 1.5,14.2 ± 1.5,14.1 ± 1.5,13.9 ± 1.5,14.6 ± 1.5
CCCCC [pentane] + CCn1cc[n+](C)c1.COP(=O)([O-])OC,106 ± 11,88.5 ± 9.3,69.8 ± 7.4,60.5 ± 6.4,52.9 ± 5.6,125 ± 13
CCCCCCCCCC [decane] + COP(=O)([O-])OC.Cn1cc[n+](C)c1,480 ± 51,466 ± 49,448 ± 47,431 ± 46,414 ± 44,503 ± 53
c1ccccc1 [benzene] + CCn1cc[n+](C)c1.COP(=O)([O-])OC,3.33 ± 0.35,3.2 ± 0.34,3.12 ± 0.33,3.02 ± 0.32,2.87 ± 0.3,3.51 ± 0.37
CCCCCC [hexane] + COP(=O)([O-])OC.Cn1cc[n+](C)c1,246 ± 26,230 ± 24,218 ± 23,203 ± 21,187 ± 20,260 ± 27

# — the NIST ThermoML archive (doi:10.1016/j.jct.2015.07.046)
